Measured values: US20240150286A1, “PEROXISOME PROLIFERATOR-ACTIVATED RECEPTOR GAMMA (PPARy) LIGANDS AND METHODS OF USE AS TREATMENTS FOR INSULIN RESISTANCE, OBESITY, FATTY LIVER DISEASE, AND TYPE 2 DIABETES” (The Board of Regents of the University of Oklahoma, priority 2022, published 2024)
pIC50: −log10 of the molar value.

How the values were obtained:
[1] = test system: adipose tissues (iWAT, eWAT, BAT) of DIO mice; experiment: Adipose tissue analyses in DIO mice (pS273 Western, qRT-PCR, UCP1, histology, CLS); type: in vivo, mouse
Protocol: C57BL/6J male mice were obtained from Jackson laboratory (Bar Harbor, ME) and maintained on a 12 h light (6:00 AM to 6:00 PM)—12 h dark (6:00 PM to 6:00 AM) cycle at an ambient temperature of 22±1° C. All animals had access to diet and water ad libitum. All procedures involving animals were approved by the Institutional Animal Care and Use Committee of the University of Oklahoma Health Science Center. All experiments were performed with age-matched male mice. The mice were fed a high-fat diet (HFD) (60% kcal fat, Bio-Serv, NJ, USA) starting from the age of 6 weeks until study end. […] Food intake was determined manually by measuring the amount of input food subtracting the amount of the food remaining in the food hopper and the crumbs on the bedding of the cage each day for three days during the 4th week of the treatment. Packed cell volume (PCV) was measured with blood drawn from tail on a LW Scientific E8 centrifuge (LW Scientific, Lawrenceville, Georgia, USA) microhematocrit centrifuge at the end of study. For all other measurements, the blood was drawn at the time of euthanization.
Liver, heart, bone, adipose tissues were dissected and immediately fixed in 4% paraformaldehyde (Sigma-Aldrich), paraffin embedded, and stained with hematoxylin and eosin. For Immunofluorescence staining, the eWAT and iWAT paraffin sections were incubated with primary antibody (rabbit polyclonal to F4/80 [1:500, Cat #: 70076], Cell Signaling Technology) overnight at 4° C. after deparaffinization. The slides were washed thrice with PBS with 0.2% Triton and then incubated in secondary antibody, Alexa 488 anti-rabbit (1:500, Jackson ImmunoResearch, PA) for 1.5 h at room temperature. Tissue sections were imaged on the Olympus Fluoview 1000 laser-scanning confocal microscope (Center Valley, PA).
Total RNA (2 μg) was isolated from tissues or cells using TRIzol reagents (Life Technologies) and reverse transcribed using oligo d(T) primers (New England Biosystems) and SuperScript IV reverse transcription kit (Applied Biosystems). qPCR was performed in a CFX96 Touch Real-Time PCR detection system using SYBR Green mix (Applied Biosystems). The amplification program was as follows: initial denaturation at 95° C. for 15 min, followed by 40 cycles of 95° C. for 15 s, 60° C. for 1 min, and 40° C. for 30 s. Relative mRNA expression was determined by the ΔΔCt method normalized to TBP mRNA. The sequences of primers used in this study were shown in Table 1 in U.S. Provisional Application Ser. No. 63/419,049, the entirety of which is incorporated herein by reference.
Proteins were extracted with RIPA buffer containing protease and phosphatase inhibitors (Thermo) and then centrifuged for 10 min at 10,000 g. A 30 μg sample of protein was separated on a 10% SDS polyacrylamide gel and transferred to polyvinylidene-fluoride membrane for 1 h at 4° C. at 40 V. The membrane was blocked in TBS (10 mm Tris-HCl, pH 7.4, 150 mm NaCl) containing 5% non-fat dry milk for 1 h at room temperature and was probed with primary antibodies followed by the appropriate HRP-conjugated secondary antibodies (Anti-rabbit IgG, #7074, or Anti-mouse IgG, #7076, 1:5000 Cell Signaling Technology). The primary antibodies used were: anti-Ser-273 PPARγ (bs-4888R, Bioss Antibodies), anti-PPARγ antibody (sc-271392, Santa Cruz Biotechnology), anti-UCP1 (14670S, Cell Signaling Technology, Beverly, MA, USA).

[2] = target: T1, PPARγ ligand-binding domain (LBD) (Homo sapiens, UniProt P37231); experiment: In vitro competition binding assay (PolarScreen PPARγ-Competitor, fluorescence polarization)
T1 construct: purchased Thermo Fisher Scientific
T1 sequence (P37231 238-503 limits assumed): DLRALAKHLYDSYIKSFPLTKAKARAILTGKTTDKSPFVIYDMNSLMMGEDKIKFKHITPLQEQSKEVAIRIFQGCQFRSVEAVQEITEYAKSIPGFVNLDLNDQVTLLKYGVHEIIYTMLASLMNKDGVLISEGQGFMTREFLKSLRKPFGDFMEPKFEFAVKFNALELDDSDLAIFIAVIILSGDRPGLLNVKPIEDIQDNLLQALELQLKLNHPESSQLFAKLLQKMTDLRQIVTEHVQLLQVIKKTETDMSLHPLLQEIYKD
Protocol: The in vitro competition binding assays was performed using PolarScreen™ PPARγ-Competitor Assay Kit according to the manufacturer's instructions. Briefly, compounds at 2-fold titration serial concentrations were incubated with GST-tagged PPARγ ligand-binding domain (LBD, 34 nM) and Fluormone PPAR Green tracer (9 nM) for 4 hours in the dark at room temperature in a black 384-well assay plate (Corning Glass cat. no. 677). The florescence polarization value (mP) was measured at 485 nm (excitation) and at 535 nm (emission) using a microplate reader.

[3] = test system: primary preadipocytes isolated from iWAT and eWAT; experiment: Browning gene expression in differentiated primary preadipocytes; type: cell-based, mouse; settings: differentiated with WO95E vs DMSO
Protocol: 3T3-L1 preadipocytes were differentiated. In brief, cells at around 60%-70% confluence were induced for differentiation with DMEM containing 10% FBS, 1 μg/ml insulin, 1 μM dexamethasone, and 0.5 mM IBMX for 48 h in the presence or absence of compounds and were then exposed in maintenance medium (1 μg/mL insulin in 10% FBS/DMEM) containing compounds. The medium was renewed every 2 days for total 8 days of differentiation when the cells became differentiated and lipid droplets were apparent. For primary preadipocyte differentiation, isolation of primary preadipocytes was performed. Briefly, fat depots were digested in PBS containing collagenase D (1.5 U/ml) at 37° C. for 40-45 min. The primary cells were filtered through 70 μm cell strainer and centrifuge at 700 g to collect stromal vascular fraction (SVF). The SVF cell pellets were plated on collagen coated plates. […]
Total RNA (2 μg) was isolated from tissues or cells using TRIzol reagents (Life Technologies) and reverse transcribed using oligo d(T) primers (New England Biosystems) and SuperScript IV reverse transcription kit (Applied Biosystems). qPCR was performed in a CFX96 Touch Real-Time PCR detection system using SYBR Green mix (Applied Biosystems). […] Relative mRNA expression was determined by the ΔΔCt method normalized to TBP mRNA. […]

[4] = SVF of inguinal and epididymal adipose tissues, DIO mice
[5] = eWAT of DIO mice, 15 mg/kg i.p. daily 4 weeks

With Cc1c(C)n(Cc2ccc(-c3ccccc3C(=O)O)cc2)c2ccc(C(=O)NCc3cccc(O)c3)cc12 [WO95E, 4′-((5-((3-hydroxybenzyl)carbamoyl)-2,3-dimethyl-1H-indol-1-yl)methyl)-[1,1′-biphenyl]-2-carboxylic acid] the “PPARγ S273 phosphorylation in iWAT” value ([1]; DIO mice, 15 mg/kg i.p. daily 4 weeks, Western blot) was “markedly inhibited”, the “mRNA levels of browning/thermogenic genes (Prdm16, Cidea, Ppara, CPT1a, UCP1, Cox5b, PGC1α) in iWAT” value ([1]; DIO mice, 15 mg/kg i.p. daily 4 weeks, vs vehicle) was “significantly increased” and the “adipocyte size in eWAT and iWAT” value ([1]; DIO mice, H&E sections, vs vehicle) was “significantly smaller”. The “UCP1 protein in iWAT and eWAT” value ([1]; DIO mice, Western blotting) was “dramatic induction”, the “UCP1 protein in BAT” value ([1]; DIO mice, data not shown) was “an increase” and the “mRNA levels of thermogenic genes in BAT” value ([1]; DIO mice, data not shown) was “increased mRNA expression levels of most of these genes”. The “areas of crown-like structures (CLS) in iWAT and eWAT” value ([1]; DIO mice, vs vehicle) was “dramatically reduced”, the “mRNA levels of M2 macrophage markers (IL4, IL10, Mg1I)” value [1, 4] was “up-regulated or unchanged” and the “mRNA levels of pan-macrophage markers (CD68, F4/80)” value [1, 4] was “significantly decreased”. The “genes involved in lipogenesis or adipogenesis” value [1, 5] was “inhibited”, the “mRNA levels of S273 phosphorylation-repressed genes (Adiponectin, Adipsin, selenbp1, Car3, Ddx-17, Acyl, Rarres2, Cidec)” value [1, 5] was “up-regulated” and the “mRNA levels of proinflammatory M1 mediators (TNFα, IL1b, IL-6, mcp-1)” value ([1]; iWAT and eWAT, DIO mice) was “down-regulated”. The “IC50 fold lower than that of UHC1” value ([2]; WO95E vs UHC1) was “approximately 70 fold”, the pIC50 ([2]; competition with Fluormone PPAR Green tracer, GST-PPARγ LBD 34 nM, read-out: half-maximum inhibitory concentration (IC50), binding to PPARγ LBD) was ~7.96 and the “expression levels of Prdm16, UCP1, PCG1α, Ppara in iWAT adipocytes” value [3] was “significantly increased”.
